Experimental data taken from patent US9545445B2, “Therapeutic drug for hypertension or prehypertension” (Teijin Pharma Limited, priority 2009, dated 2017).

Test system: SHRs (Spontaneously Hypertensive Rats)
Test: Systolic blood pressure of spontaneously hypertensive rats by Tail-Cuff method after administration in drinking water
Assay type: in vivo, rat
From the text: In this case, losartan (an angiotensin-receptor antagonist), enalapril (an angiotensin-converting enzyme inhibitor), amlodipine (a calcium channel blocker), and diltiazem (a calcium channel blocker) were used as representative examples of the antihypertensive agent (b). Twelve-week-old male SHRs (Spontaneously Hypertensive Rats) were used for experiment after subjecting them to quarantine for 1 week or more. At 15 or 16 weeks old, the SHRs were trained for blood pressure measurement with a Tail-Cuff method sphygmomanometer (BP-2000, Visitech systems, Napa Place, N.C., USA) for 1 to 2 weeks. After completing the training, they underwent blood pressure measurement at 17 to 18 weeks old. The animals were divided into 4 groups (10 for each) by taking care not to cause a bias in the systolic blood pressure, and the drug administration was started. Tap water was administered to a first group as a control group. A solution of each test material dissolved in tap water was administered to second to fourth groups. That is, febuxostat was administered to the second group, each antihypertensive agent of losartan, enalapril, amlodipine or diltiazem to the third group, and the mixture of febuxostat and the antihypertensive agents administered to the third group as combined administration to the fourth group. The dose of each agent was calculated from the concentration in the solution, the amount of drinking water, and the weight of the rats. After administration was carried out for 2 to 6 weeks, the value of their systolic blood pressure were measured by Tail-Cuff method.

[1] = male SHR, before administration (baseline of the group), Table 3 study, each agent 3 mg/kg/day
[2] = male SHR, 42nd day after administration, each agent 3 mg/kg/day in tap water, alone or combined, Table 2 study (tap water group 226 ± 4)
[3] = male SHR, before administration (baseline of the group), Table 2 study, each agent 3 mg/kg/day
[4] = male SHR, 14th day after administration, each agent 3 mg/kg/day in tap water, alone or combined, Table 1 study (tap water group 233 ± 4)
[5] = male SHR, before administration (baseline of the group), Table 1 study, each agent 3 mg/kg/day

In the case of `CCOC(=O)C1=C(COCCN)NC(C)=C(C(=O)OC)C1c1ccccc1Cl` (centres unmarked) [amlodipine], the “systolic blood pressure (mean value±standard error)” value [1] is reported as 228 ± 3 mmHg and the “systolic blood pressure (mean value±standard error)” value (rat, in vivo) is reported as 219 ± 3 mmHg.

With `CCOC(=O)[C@H](CCc1ccccc1)N[C@@H](C)C(=O)N1CCC[C@H]1C(=O)O` [enalapril] the “systolic blood pressure (mean value±standard error)” value [2] was 220 ± 5 mmHg and the “systolic blood pressure (mean value±standard error)” value [3] was 232 ± 5 mmHg.

With `CCCCc1nc(Cl)c(CO)n1Cc1ccc(-c2ccccc2-c2nn[nH]n2)cc1` [losartan] the “systolic blood pressure (mean value±standard error)” value [4] was 215 ± 2 mmHg and the “systolic blood pressure (mean value±standard error)” value [5] was 232 ± 4 mmHg.

`Cc1nc(-c2ccc(OCC(C)C)c(C#N)c2)sc1C(=O)O` [febuxostat, 2-(3-cyano-4-isobutyloxyphenyl)-4-methyl-5-thiazolecarboxylic acid] was tested, and the “systolic blood pressure (mean value±standard error)” value [4] was 219 ± 4 mmHg, the “systolic blood pressure (mean value±standard error)” value (male SHR, 14th day after administration, each agent 3 mg/kg/day in tap water, alone or combined, Table 3 study (tap water group 229 ± 3)) was 215 ± 4 mmHg and the “systolic blood pressure (mean value±standard error)” value [2] was 213 ± 5 mmHg. For the same molecule, the “systolic blood pressure (mean value±standard error)” value (male SHR, 42nd day after administration, febuxostat 3 mg/kg/day in tap water, Table 4 study (tap water group 233 ± 3)) was 227 ± 4 mmHg, the “antihypertensive action (result in words)” value (male SHR, administration for 2 to 6 weeks in drinking water) was “antihypertensive action” and the “systolic blood pressure (mean value±standard error)” value [5] was 230 ± 4 mmHg. The “systolic blood pressure (mean value±standard error)” value [3] was 230 ± 3 mmHg, the “systolic blood pressure (mean value±standard error)” value [1] was 228 ± 4 mmHg and the “systolic blood pressure (mean value±standard error)” value (male SHR, before administration (baseline of the group), Table 4 study, febuxostat 3 mg/kg/day) was 230 ± 5 mmHg.

For `COc1ccc([C@@H]2Sc3ccccc3N(CCN(C)C)C(=O)[C@@H]2OC(C)=O)cc1` [diltiazem], the “systolic blood pressure (mean value±standard error)” value (male SHR, 42nd day after administration, diltiazem 100 mg/kg/day in tap water, Table 4 study (tap water group 233 ± 3)) was 231 ± 4 mmHg and the “systolic blood pressure (mean value±standard error)” value (male SHR, before administration (baseline of the group), Table 4 study, diltiazem 100 mg/kg/day) was 229 ± 4 mmHg.
